{"source": "paper PMC10004634", "about": "(PLOS ONE, 2023)", "tested_on": "TMD8 cells", "test": "RT-qPCR of IRF4, BCL6, MYC mRNA", "assay_type": "cell-based, human", "settings": "24 h, tirabrutinib 1 μM, BMS-345541 10 μM, MK-2206 1 μM, refametinib 0.1 μM", "protocol": "After culturing, total RNA was isolated from cells using the RNeasy Plus Mini Kit (Qiagen), then cDNA was prepared from total RNA using the SuperScript VILO cDNA Synthesis Kit (Invitrogen) following the kit instructions. For quantification of each mRNA expression level, PCR was performed using TaqMan Fast Universal PCR Master Mix (Thermo Fisher Scientific) under the following conditions with the AriaMx Real Time PCR System (Agilent Technologies): 95°C for 3 min, followed by 40 cycles at 95°C for 5 s and 60°C for 20 s with continuous fluorescence measurement. All PCRs were performed in triplicate, and the mRNA expression of GAPDH was used as an internal control. The results (fold changes of the threshold cycle [Ct] relative to the control group) were obtained using the 2^−ΔΔCt method. The TaqMan probes for IRF4 (Assay ID: Hs00180031_m1), BCL6 (Assay ID: Hs00153368_m1), MYC (Assay ID: Hs00153408_m1), and GAPDH (Assay ID: Hs02786624_g1) were purchased from Thermo Fisher Scientific. Statistical tests were performed with the SAS 9.4 (SAS Institute Japan Ltd., Tokyo, Japan) TS1M4-based EXSUS system version 10.1.3 (CAC Corporation, Tokyo, Japan). The t-test or Dunnett test was used to compare mRNA expression in the DMSO- and compound-treated groups. The statistical tests were two-sided with a 5% significance level.", "note": "“Also recorded” adds a separate entry of the source."}
{"molecule": "Cc1ccc2nc(NCCN)c3ncc(C)n3c2c1", "note": "[BMS-345541]", "values": [{"measurement": "IRF4 mRNA expression", "result": "significant downregulation; also recorded: strongly inhibited"}, {"measurement": "MYC mRNA expression", "result": "significant downregulation; also recorded: strong inhibition"}]}
{"molecule": "NC1(c2ccc(-c3nc4ccn5c(=O)[nH]nc5c4cc3-c3ccccc3)cc2)CCC1", "note": "[MK-2206]", "values": [{"measurement": "IRF4 mRNA expression", "result": "did not downregulate"}, {"measurement": "MYC mRNA expression", "result": "did not downregulate"}]}
{"molecule": "COc1cc(F)c(F)c(Nc2ccc(I)cc2F)c1NS(=O)(=O)C1(C[C@H](O)CO)CC1", "note": "[refametinib]", "values": [{"measurement": "MYC mRNA expression", "result": "tended to downregulate; also recorded: partially downregulated"}]}
